# Experimental data from patent publication US20260347364A1, “PYRAZOLO[4,3-F]QUINAZOLINE DERIVATIVES AS MODULATORS OF G12D MUTANT KRAS USEFUL FOR THE TREATMENT OF CANCER” (JAZZ PHARMACEUTICALS IRELAND LTD., priority 2023, published 2026).
# pIC50: −log10 of the molar value.
# Legend:
# KRAS G12D = biological target: T1, KRAS G12D (Homo sapiens, UniProt P01116, G12D); experiment: HTRF nucleotide exchange assay, KRAS G12D; type: biochemical; details: class symbols; for pIC50: HTRF nucleotide exchange assay (NEA)
# T1 construct: aa1-188 KRAS WT, HRAS WT, NRAS WT, or KRAS containing the G12D
# KRAS WT = biological target: T2, KRAS WT (Homo sapiens, UniProt P01116); experiment: HTRF nucleotide exchange assay, KRAS WT; type: biochemical; details: class symbols; for pIC50: HTRF nucleotide exchange assay (NEA)
# T2 construct: aa1-188 KRAS WT
pIC50 (KRAS G12D),pIC50 (KRAS WT),KRAS^G12D NEA (KRAS G12D),KRAS^WT NEA (KRAS WT),Structure (SMILES)
≥ 8.00,7.00 to 8.00,,,"CCc1c(F)ccc2cc(O)cc(-c3cc4nc(OC[C@@]56CCCN5C[C@H](F)C6)nc(N5CCCn6nc(CN(C)C)cc6C5)c4c4cn(C)nc34)c12 [Example 102, 4-[9-[2-[(dimethylamino)methyl]-4,6,7,8-tetrahydropyrazolo[1,5-a][1,4]diazepin-5-yl]-2-methyl-7-[[(2R,8S)-2-fluoro-1,2,3,5,6,7-hexahydropyrrolizin-8-yl]methoxy]pyrazolo[4,3-f]quinazolin-4-yl]-5-ethyl-6-fluoro-naphthalen-2-ol]"
≥ 8.00,≥ 8.00,,,CCc1c(F)ccc2cc(O)cc(-c3cc4nc(OC[C@@]56CCCN5C[C@H](F)C6)nc(N5CCCn6nc(C(=O)N(C)C)c(F)c6C5)c4c4cn(C)nc34)c12 [Example 103]
7.00 to 8.00,5.00 to 7.00,,,"CCc1c(F)ccc2cc(Cl)cc(-c3cc4nc(OC[C@@]56CCCN5C[C@H](F)C6)nc(N5CCCn6nc(C(=O)N(C)C)cc6C5)c4c4cn(C)nc34)c12 [Example 104, 5-[4-(3-chloro-8-ethyl-7-fluoro-1-naphthyl)-2-methyl-7-[[(2R,8S)-2-fluoro-1,2,3,5,6,7-hexahydropyrrolizin-8-yl]methoxy]pyrazolo[4,3-f]quinazolin-9-yl]-N,N-dimethyl-4,6,7,8-tetrahydropyrazolo[1,5-a][1,4]diazepine-2-carboxamide]"
,,D (<49% inhibition at 10 μM),D (<49% inhibition at 10 μM),"Cn1cc2c(n1)c(-c1ncc(F)c3sc(N)c(C#N)c13)cc1nc(OC[C@@]34CCCN3C[C@H](F)C4)nc(N3CCC[C@@](C)(O)C3)c12 [Example 106, 2-amino-7-fluoro-4-[2-methyl-7-[[(2R,8S)-2-fluoro-1,2,3,5,6,7-hexahydropyrrolizin-8-yl]methoxy]-9-[(3R)-3-hydroxy-3-methyl-1-piperidyl]pyrazolo[4,3-f]quinazolin-4-yl]thieno[3,2-c]pyridine-3-carbonitrile]"
,,D (<49% inhibition at 10 μM),D (<49% inhibition at 10 μM),"Cn1cc2c(n1)c(-c1ncc(F)c3sc(N)c(C#N)c13)cc1nc(OC[C@@]34CCCN3C[C@H](F)C4)nc(N3CCOCC(C)(O)C3)c12 (stereo partly drawn) [Example 107, 2-amino-7-fluoro-4-[7-[[(2R,8S)-2-fluoro-1,2,3,5,6,7-hexahydropyrrolizin-8-yl]methoxy]-9-(6-hydroxy-6-methyl-1,4-oxazepan-4-yl)-2-methyl-pyrazolo[4,3-f]quinazolin-4-yl]thieno[3,2-c]pyridine-3-carbonitrile]"
5.00 to 7.00,5.00 to 7.00,,,"Cc1c(-c2ncc(F)c3sc(N)c(C#N)c23)c2nn(C)cc2c2c(N3CCOCC(C)(O)C3)nc(OC[C@@]34CCCN3C[C@H](F)C4)nc12 (stereo partly drawn) [Example 108, 2-amino-7-fluoro-4-[7-[[(2R,8S)-2-fluoro-1,2,3,5,6,7-hexahydropyrrolizin-8-yl]methoxy]-9-(6-hydroxy-6-methyl-1,4-oxazepan-4-yl)-2,5-dimethyl-pyrazolo[4,3-f]quinazolin-4-yl]thieno[3,2-c]pyridine-3-carbonitrile]"
≥ 8.00,≥ 8.00,,,"CCc1c(F)ccc2cc(O)cc(-c3c(F)c4nc(OC[C@@]56CCCN5C[C@H](F)C6)nc(N5CCOC[C@@](C)(O)C5)c4c4cn(C)nc34)c12 [Example 109, (6S)-4-[4-(8-ethyl-7-fluoro-3-hydroxy-1-naphthyl)-5-fluoro-2-methyl-7-[[(2R,8S)-2-fluoro-1,2,3,5,6,7-hexahydropyrrolizin-8-yl]methoxy]pyrazolo[4,3-f]quinazolin-9-yl]-6-methyl-1,4-oxazepan-6-ol]"
≥ 8.00,≥ 8.00,,,"CCc1c(F)ccc2cc(O)cc(-c3c(F)c4nc(OC[C@@]56CCCN5C[C@H](F)C6)nc(N5CCOC[C@](C)(O)C5)c4c4cn(C)nc34)c12 [Example 110, (6R)-4-[4-(8-ethyl-7-fluoro-3-hydroxy-1-naphthyl)-5-fluoro-2-methyl-7-[[(2R,8S)-2-fluoro-1,2,3,5,6,7-hexahydropyrrolizin-8-yl]methoxy]pyrazolo[4,3-f]quinazolin-9-yl]-6-methyl-1,4-oxazpan-6-ol]"
7.00 to 8.00,≥ 8.00,,,"CCc1c(F)ccc2cc(O)cc(-c3c(F)c4nc(OC[C@@]56CCCN5C[C@H](F)C6)nc(N5CCC(C#N)CC5)c4c4cn(C)nc34)c12 [Example 111, 1-[4-(8-ethyl-7-fluoro-3-hydroxy-1-naphthyl)-5-fluoro-2-methyl-7-[[(2R,8S)-2-fluoro-1,2,3,5,6,7-hexahydropyrrolizin-8-yl]methoxy]pyrazolo[4,3-f]quinazolin-9-yl]piperidine-4-carbonitrile]"
≥ 8.00,≥ 8.00,,,"CCc1c(F)ccc2cc(O)cc(-c3cc4nc(OC[C@@]56CCCN5C[C@H](F)C6)nc(N5CCCn6nc(C(=O)N(C)C)nc6C5)c4c4cn(C)nc34)c12 [Example 112, 8-[4-(8-ethyl-7-fluoro-3-hydroxy-1-naphthyl)-2-methyl-7-[[(2R,8S)-2-fluoro-1,2,3,5,6,7-hexahydropyrrolizin-8-yl]methoxy]pyrazolo[4,3-f]quinazolin-9-yl]-N,N-dimethyl-5,6,7,9-tetrahydro-[1,2,4]triazolo[1,5-a][1,4]diazepine-2-carboxamide]"
5.00 to 7.00,7.00 to 8.00,,,"CCc1c(F)ccc2cc(O)cc(-c3cc4nc(OC[C@@]56CCCN5C[C@H](F)C6)nc(N5CCC(CO)CC5)c4c4cn(C)nc34)c12 [Example 113, 5-ethyl-6-fluoro-4-[9-[4-(hydroxymethyl)-1-piperidyl]-2-methyl-7-[[(2R,8S)-2-fluoro-1,2,3,5,6,7-hexahydropyrrolizin-8-yl]methoxy]pyrazolo[4,3-f]quinazolin-4-yl]naphthalen-2-ol]"
≥ 8.00,7.00 to 8.00,,,"CCc1c(F)ccc2cc(O)cc(-c3cc4nc(OC[C@@]56CCCN5C[C@H](F)C6)nc(N5CCCC(CO)C5)c4c4cn(C)nc34)c12 (stereo partly drawn) [Example 114, 5-ethyl-6-fluoro-4-[9-[3-(hydroxymethyl)-1-piperidyl]-2-methyl-7-[[(2R,8S)-2-fluoro-1,2,3,5,6,7-hexahydropyrrolizin-8-yl]methoxy]pyrazolo[4,3-f]quinazolin-4-yl]naphthalen-2-ol]"
≥ 8.00,≥ 8.00,,,"CCc1c(F)ccc2cc(O)cc(-c3cc4nc(OC[C@@]56CCCN5C[C@H](F)C6)nc(N5CCOC(CO)C5)c4c4cn(C)nc34)c12 (stereo partly drawn) [Example 115, 5-ethyl-6-fluoro-4-[9-[2-(hydroxymethyl)morpholin-4-yl]-2-methyl-7-[[(2R,8S)-2-fluoro-1,2,3,5,6,7-hexahydropyrrolizin-8-yl]methoxy]pyrazolo[4,3-f]quinazolin-4-yl]naphthalen-2-ol]"
7.00 to 8.00,7.00 to 8.00,,,"CCc1c(F)ccc2cc(O)cc(-c3cc4nc(OC[C@@]56CCCN5C[C@H](F)C6)nc(N5CCC(C)(O)C5)c4c4cn(C)nc34)c12 (stereo partly drawn) [Example 116, 1-[4-(8-ethyl-7-fluoro-3-hydroxy-1-naphthyl)-2-methyl-7-[[(2R,8S)-2-fluoro-1,2,3,5,6,7-hexahydropyrrolizin-8-yl]methoxy]pyrazolo[4,3-f]quinazolin-9-yl]-3-methyl-pyrrolidin-3-ol]"
5.00 to 7.00,5.00 to 7.00,,,"CCc1c(F)ccc2cc(O)cc(-c3cc4nc(OC[C@@]56CCCN5C[C@H](F)C6)nc(N5CCC(C)(O)CC5)c4c4cn(C)nc34)c12 [Example 118, 1-[4-(8-ethyl-7-fluoro-3-hydroxy-1-naphthyl)-2-methyl-7-[[(2R,8S)-2-fluoro-1,2,3,5,6,7-hexahydropyrrolizin-8-yl]methoxy]pyrazolo[4,3-f]quinazolin-9-yl]-4-methyl-piperidin-4-ol]"
5.00 to 7.00,5.00 to 7.00,,,"CCc1c(F)ccc2cc(O)cc(-c3cc4nc(OC[C@@]56CCCN5C[C@H](F)C6)nc(N5CCC(C)(OC)CC5)c4c4cn(C)nc34)c12 [Example 119, 5-ethyl-6-fluoro-4-[9-(4-methoxy-4-methyl-1-piperidyl)-2-methyl-7-[[(2R,8S)-2-fluoro-1,2,3,5,6,7-hexahydropyrrolizin-8-yl]methoxy]pyrazolo[4,3-f]quinazolin-4-yl]naphthalen-2-ol]"
≥ 8.00,≥ 8.00,,,"CCc1c(F)ccc2cc(O)cc(-c3cc4nc(OC[C@@]56CCCN5C[C@H](F)C6)nc(N5CCOCC(O)C5)c4c4cn(C)nc34)c12 (stereo partly drawn) [Example 120, 4-[4-(8-ethyl-7-fluoro-3-hydroxy-1-naphthyl)-2-methyl-7-[[(2R,8S)-2-fluoro-1,2,3,5,6,7-hexahydropyrrolizin-8-yl]methoxy]pyrazolo[4,3-f]quinazolin-9-yl]-1,4-oxazepan-6-ol]"
≥ 8.00,≥ 8.00,,,"CCc1c(F)ccc2cc(O)cc(-c3cc4nc(OC[C@@]56CCCN5C[C@H](F)C6)nc(N5CCOCC(C)C5)c4c4cn(C)nc34)c12 (stereo partly drawn) [Example 121, 5-ethyl-6-fluoro-4-[2-methyl-9-(6-methyl-1,4-oxazepan-4-yl)-7-[[(2R,8S)-2-fluoro-1,2,3,5,6,7-hexahydropyrrolizin-8-yl]methoxy]pyrazolo[4,3-f]quinazolin-4-yl]naphthalen-2-ol]"
≥ 8.00,≥ 8.00,,,"CCc1c(F)ccc2cc(O)cc(-c3cc4nc(OC[C@@]56CCCN5C[C@H](F)C6)nc(N5CCC(CO)C5)c4c4cn(C)nc34)c12 (stereo partly drawn) [Example 122, 5-ethyl-6-fluoro-4-[9-[3-(hydroxymethyl)pyrrolidin-1-yl]-2-methyl-7-[[(2R,8S)-2-fluoro-1,2,3,5,6,7-hexahydropyrrolizin-8-yl]methoxy]pyrazolo[4,3-f]quinazolin-4-yl]naphthalen-2-ol]"
7.00 to 8.00,7.00 to 8.00,,,"CCc1c(F)ccc2cc(O)cc(-c3cc4nc(OC[C@@]56CCCN5C[C@H](F)C6)nc(N5CCOCC(O)(C(F)(F)F)C5)c4c4cn(C)nc34)c12 (stereo partly drawn) [Example 123, 4-[4-(8-ethyl-7-fluoro-3-hydroxy-1-naphthyl)-2-methyl-7-[[(2R,8S)-2-fluoro-1,2,3,5,6,7-hexahydropyrrolizin-8-yl]methoxy]pyrazolo[4,3-f]quinazolin-9-yl]-6-(trifluoromethyl)-1,4-oxazepan-6-ol]"
